The values that follow are results of earlier work, collected in patent publication US20220000855A1, “AN AURORA A KINASE INHIBITOR FOR USE IN THE TREATMENT OF NEUROBLASTOMA” (Eli Lilly and Company, priority 2018, published 2022).

For this data set the following is noted: background statement.

Take `COc1cc(Nc2ncc3c(n2)-c2ccc(Cl)cc2C(c2c(F)cccc2OC)=NC3)ccc1C(=O)O` [alisertib]: the “neutropenia and other toxic effects associated with use” value is “unacceptably high levels of neutropenia and other toxic effects”.
With `Cc1cc(Nc2cc(N3CCN(C)CC3)nc(Sc3ccc(NC(=O)C4CC4)cc3)n2)[nH]n1` [tozasertib], the “neutropenia and other toxic effects associated with use” value was “unacceptably high levels of neutropenia and other toxic effects”.
